Laboratory results taken from paper PMC6100189, “In Silico Docking and In Vitro Approaches towards BACE1 and Cholinesterases Inhibitory Effect of Citrus Flavanones” (Molecules : A Journal of Synthetic Chemistry and Natural …, 2018).

Tests used:
brains of rats = settings: pre-administration 40 mg/kg, oral; no reference given; cited from earlier work
BChE [1] = target: T1, BChE (Equus caballus, UniProt P81908); assay: BChE inhibition, modified Ellman colorimetric method; assay type: biochemical, equine; settings: mean ± S.E. of triplicate experiments
T1 construct: BChE (equine serum, 0.8 U/mL); purchased Sigma-Aldrich (St. Louis, MO, USA); host or cells: equine serum
T1 sequence (P81908 whole entry): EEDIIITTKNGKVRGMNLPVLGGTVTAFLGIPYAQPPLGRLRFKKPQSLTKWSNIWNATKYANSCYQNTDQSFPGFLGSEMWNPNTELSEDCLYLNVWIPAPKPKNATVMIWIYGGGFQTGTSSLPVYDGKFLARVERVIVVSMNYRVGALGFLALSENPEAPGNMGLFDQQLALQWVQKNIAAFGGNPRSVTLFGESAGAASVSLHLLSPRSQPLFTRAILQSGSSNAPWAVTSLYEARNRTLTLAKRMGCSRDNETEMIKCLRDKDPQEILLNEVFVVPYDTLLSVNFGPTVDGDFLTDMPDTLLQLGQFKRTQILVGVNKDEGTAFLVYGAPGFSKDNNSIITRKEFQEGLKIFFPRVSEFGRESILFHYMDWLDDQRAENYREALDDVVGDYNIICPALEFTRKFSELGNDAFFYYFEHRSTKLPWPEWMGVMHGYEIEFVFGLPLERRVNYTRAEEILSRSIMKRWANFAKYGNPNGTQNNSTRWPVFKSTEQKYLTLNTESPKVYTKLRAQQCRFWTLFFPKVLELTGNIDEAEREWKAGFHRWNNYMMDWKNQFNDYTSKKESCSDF
Experimental: (§3) AChE and BChE inhibitory activities were assessed by a modified version of the Ellman colorimetric method [34]. Each reaction mixture consisted of sodium phosphate buffer (pH 7.4), test sample solution, and either AChE (electrophorus electricus, 0.8 U/mL) or BChE (equine serum, 0.8 U/mL) solution, which was then mixed and incubated for 15 min at room temperature. Reactions were initiated upon addition of DTNB and substrate (0.75 mM).
Enzymatic hydrolysis, mediated by AChE or BChE, was monitored according to the formation of yellow 5-thio-2-nitrobenzoate anions at 405 nm for 15 min, which were produced by the reaction of DTNB with thiocholine released from ACh or BCh. All reactions were performed in 96-well plates in triplicate, and recorded using a microplate spectrophotometer (Molecular Devices, Sunnyvale, CA, USA).

rat brain = settings: cited from earlier work
BACE1 [2] = target: T2, BACE1 (Homo sapiens, UniProt P56817); assay: Inhibition kinetics on BACE1 (Dixon and Lineweaver–Burk plots); assay type: biochemical; settings: for Inhibition mode on BACE1: Dixon and Lineweaver–Burk plots; for Ki: Dixon plot
T2 construct: purchased Invitrogen (Pan Vera, Madison, WI, USA)
T2 sequence (P56817 46-501): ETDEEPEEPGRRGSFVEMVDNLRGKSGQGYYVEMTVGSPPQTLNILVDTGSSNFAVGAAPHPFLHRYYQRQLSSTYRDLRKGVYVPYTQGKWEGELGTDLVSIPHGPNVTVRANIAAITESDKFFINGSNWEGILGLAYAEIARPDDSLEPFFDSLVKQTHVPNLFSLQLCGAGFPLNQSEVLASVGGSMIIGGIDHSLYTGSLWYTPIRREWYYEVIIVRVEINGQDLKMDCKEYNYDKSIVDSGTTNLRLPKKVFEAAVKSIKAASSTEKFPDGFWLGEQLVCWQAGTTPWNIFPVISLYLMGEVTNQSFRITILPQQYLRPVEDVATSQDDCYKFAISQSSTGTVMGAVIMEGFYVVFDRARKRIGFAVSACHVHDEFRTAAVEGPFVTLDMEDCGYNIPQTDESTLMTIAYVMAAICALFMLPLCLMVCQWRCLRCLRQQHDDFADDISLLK
Experimental: (§1) The inhibitory constant (Ki) was obtained by interpretation of the Dixon plot, and Vmax and Km were defined by Lineweaver–Burk plots, using the initial velocities obtained over a substrate concentration range. These kinetic parameters were calculated using the Enzyme Kinetic™ module of SigmaPlot™ version 12.3 (Systat Software, Inc., San Jose, CA, USA).

Chymotrypsin = target: T3, Chymotrypsin (Bos taurus, UniProt P00766); assay: Chymotrypsin inhibition assay; assay type: biochemical; settings: mean ± S.E., read-out: Inhibitory activities (%) Chymotrypsin; for inhibition at 10 µM: sample 10 μM; for inhibition at 100 µM: sample 100 μM
T3 construct: purchased Sigma-Aldrich
Experimental: (§4) The BACE1 kit from Invitrogen (Pan Vera, Madison, WI, USA) was used for the measurement of BACE1 activity. α-Secretase (tumor necrosis factor-α converting enzyme, TACE) and its fluorogenic substrate were purchased from R&D Systems (Minneapolis, MN, USA). Elastase, chymotrypsin, trypsin, and their substrates were obtained from Sigma-Aldrich.
(§5) BACE1, TACE, chymotrypsin, trypsin, and elastase assays were carried out according to previously described methods [33]. BACE1, TACE, trypsin, chymotrypsin, and elastase assays were carried out using Rh-[sequence]-Quencher, Mca-PLAQAV-Dpa-RSSSR-NH2, N-benzoyl-l-Arg-pNA, N-benzoyl-L-Tyr-pNA, and N-succinyl-Ala-Ala-Ala-pNA as substrates, respectively.

cholinesterases = settings: several studies ref 20, 21; cited from earlier work
AChE [3] = target: T4, AChE (Electrophorus electricus, UniProt O42275); assay: Inhibition kinetics on AChE (Dixon and Lineweaver–Burk plots); assay type: biochemical; settings: for Inhibition mode on AChE: Dixon and Lineweaver–Burk plots; for Ki: Dixon plot
T4 construct: purchased Sigma-Aldrich (St. Louis, MO, USA)
T4 sequence (O42275 24-633): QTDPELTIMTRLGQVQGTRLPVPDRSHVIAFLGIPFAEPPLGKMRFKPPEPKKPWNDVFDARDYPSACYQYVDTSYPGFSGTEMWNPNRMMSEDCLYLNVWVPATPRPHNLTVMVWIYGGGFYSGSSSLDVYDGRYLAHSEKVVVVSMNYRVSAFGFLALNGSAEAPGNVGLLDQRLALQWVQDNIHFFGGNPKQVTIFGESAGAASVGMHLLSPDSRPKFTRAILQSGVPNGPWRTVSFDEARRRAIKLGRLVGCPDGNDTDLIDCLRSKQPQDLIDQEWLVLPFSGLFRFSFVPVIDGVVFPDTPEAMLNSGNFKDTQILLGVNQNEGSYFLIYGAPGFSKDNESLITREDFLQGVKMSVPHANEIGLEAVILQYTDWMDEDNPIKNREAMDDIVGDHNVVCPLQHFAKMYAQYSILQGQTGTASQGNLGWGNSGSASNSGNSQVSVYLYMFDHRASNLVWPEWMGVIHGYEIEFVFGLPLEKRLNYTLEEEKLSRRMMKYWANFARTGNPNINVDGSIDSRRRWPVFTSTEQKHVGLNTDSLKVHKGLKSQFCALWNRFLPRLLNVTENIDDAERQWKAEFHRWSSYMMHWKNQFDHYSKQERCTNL
Experimental: (§2) AChE and BChE inhibitory activities were assessed by a modified version of the Ellman colorimetric method. Each reaction mixture consisted of sodium phosphate buffer (pH 7.4), test sample solution, and either AChE (electrophorus electricus, 0.8 U/mL) or BChE (equine serum, 0.8 U/mL) solution, which was then mixed and incubated for 15 min at room temperature. Reactions were initiated upon addition of DTNB and substrate (0.75 mM).
as §1

AChE [4] = target: T4, AChE; assay: AChE inhibition, modified Ellman colorimetric method; assay type: biochemical; settings: mean ± S.E. of triplicate experiments
Experimental: as §3
All reactions were performed in 96-well plates in triplicate, and recorded using a microplate spectrophotometer (Molecular Devices, Sunnyvale, CA, USA).

[5] = test system: ECV304/C6 co-culture model; settings: in vitro ECV304/C6 co-culture model ref 27; cited from earlier work
Elastase = target: T5, Elastase (Sus scrofa, UniProt P00772); assay: Elastase inhibition assay; assay type: biochemical; settings: mean ± S.E., read-out: Inhibitory activities (%) Elastase; for inhibition at 10 µM: sample 10 μM; for inhibition at 100 µM: sample 100 μM
T5 construct: purchased Sigma-Aldrich
T5 sequence (P00772 27-266): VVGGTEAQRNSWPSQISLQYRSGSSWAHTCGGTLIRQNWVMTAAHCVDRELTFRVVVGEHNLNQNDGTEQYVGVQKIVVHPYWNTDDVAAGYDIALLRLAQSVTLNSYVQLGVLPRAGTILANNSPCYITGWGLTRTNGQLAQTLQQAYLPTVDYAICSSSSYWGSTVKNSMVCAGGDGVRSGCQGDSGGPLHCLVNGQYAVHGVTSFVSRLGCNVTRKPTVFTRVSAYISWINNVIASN
Experimental: as §4, §5

[6] = target: T6, α-secretase (tumor necrosis factor-α converting enzyme, TACE) (Homo sapiens, UniProt P78536); assay: TACE (α-secretase) inhibition assay; assay type: biochemical; settings: mean ± S.E., read-out: Inhibitory activities (%) TACE; for inhibition at 10 µM: sample 10 μM; for inhibition at 100 µM: sample 100 μM
T6 construct: purchased R&D Systems (Minneapolis, MN, USA)
T6 sequence (P78536 215-824): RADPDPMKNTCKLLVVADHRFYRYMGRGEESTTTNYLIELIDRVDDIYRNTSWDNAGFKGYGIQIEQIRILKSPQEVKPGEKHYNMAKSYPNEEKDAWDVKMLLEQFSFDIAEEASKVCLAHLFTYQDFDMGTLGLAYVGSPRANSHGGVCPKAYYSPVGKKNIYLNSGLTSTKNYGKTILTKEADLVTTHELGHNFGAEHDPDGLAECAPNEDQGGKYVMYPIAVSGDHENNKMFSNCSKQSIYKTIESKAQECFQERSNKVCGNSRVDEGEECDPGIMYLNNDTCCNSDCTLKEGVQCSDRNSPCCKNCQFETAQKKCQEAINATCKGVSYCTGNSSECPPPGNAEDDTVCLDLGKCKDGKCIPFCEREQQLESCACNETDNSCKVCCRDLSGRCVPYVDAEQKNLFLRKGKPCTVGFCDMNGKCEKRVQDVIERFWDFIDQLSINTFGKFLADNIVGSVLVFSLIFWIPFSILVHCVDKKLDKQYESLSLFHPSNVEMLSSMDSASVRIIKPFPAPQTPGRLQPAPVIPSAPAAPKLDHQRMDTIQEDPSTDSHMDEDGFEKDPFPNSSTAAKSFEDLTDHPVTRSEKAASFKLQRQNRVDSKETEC
Experimental: as §4, §5

BACE1 [7] = target: T2, BACE1; assay: BACE1 inhibition assay (Invitrogen kit, Rh-[…]-Quencher substrate); assay type: biochemical
Experimental: as §4, §5

Trypsin = Trypsin inhibition assay; assay type: biochemical; settings: mean ± S.E.
Experimental: as §4, §5

APPswe/PS1dE9 Tg mice = settings: chronic administration for 16 weeks ref 18; cited from earlier work
APP/PS1 Tg mice = settings: oral 100 mg/kg for 10 days ref 16; cited from earlier work
BChE [8] = target: T1, BChE; assay: Inhibition kinetics on BChE (Dixon and Lineweaver–Burk plots); assay type: biochemical, equine
Experimental: as §2, §1

mice = settings: orally 4.5 mg/kg body weight of mice ref 23; cited from earlier work
AChE [9] = settings: previous study ref 19; read-out: IC50 against AChE; cited from earlier work

For `COc1ccc(C2CC(=O)c3c(O)cc(O)cc3O2)cc1O` (stereo not drawn) [Hesperetin, 4′-methoxy-3′,5,7-trihydroxyflavanone], the “Effect on cadmium-induced damage in the brains of rats” value (brains of rats) is listed as “significantly attenuated cadmium-induced oxidative stress and mitochondrial dysfunction”, the IC50 (BChE [1]) is listed as greater than 100 µM and the “Presence in the rat brain” value (rat brain; after oral administration of hesperidin ref 31) is listed as “detected in the rat brain”. For the same compound, the “Presence in the striatum of rat brains” value (rat brain; intravenous 50 mg/kg ref 29) was “detected in the striatum of rat brains”, the “Inhibition mode on BACE1” value (BACE1 [2]) was “noncompetitive inhibition” and the Ki (BACE1 [2]) was 42.7 µM. The inhibition at 10 µM (Chymotrypsin) was 4.91 ± 1.4%, the inhibition at 100 µM (Chymotrypsin) was 9.21 ± 0.33% and the “Inhibitory activity against cholinesterases” value (cholinesterases) was “low inhibitory activity”. For the same compound, the “Inhibition mode on AChE” value (AChE [3]) was “noncompetitive inhibition”, the Ki (AChE [3]) was 53.9 µM and the IC50 (AChE [4]) was 45.7 ± 2.69 µM. The BBB crossing [5] was “cross the BBB”, the inhibition at 10 µM (Elastase) was 4.84 ± 0.46% and the inhibition at 100 µM (Elastase) was 9.95 ± 1.28%. The inhibition at 10 µM [6] was 8.66 ± 0.7%, the inhibition at 100 µM [6] was 11.3 ± 1.37% and the IC50 (BACE1 [7]) was 22.1 ± 1.81 µM. The “Inhibitory activities (%) Trypsin” value (Trypsin; sample 10 μM) was 5.31 ± 0.39% and the “Inhibitory activities (%) Trypsin” value (Trypsin; sample 100 μM) was 4.72 ± 0.45%.
In the case of `COc1ccc([C@@H]2CC(=O)c3c(O)cc(O[C@@H]4O[C@H](CO[C@@H]5O[C@@H](C)[C@H](O)[C@@H](O)[C@H]5O)[C@@H](O)[C@H](O)[C@H]4O)cc3O2)cc1O` [Hesperidin, hesperidin], the IC50 (BChE [1]) is listed as 48.1 ± 0.74 µM, the “Presence in brain homogenates” value (rat brain; systemic administration of hesperidin to rats ref 30) is listed as “presence of hesperidin was confirmed by brain homogenates” and the “Inhibition mode on BACE1” value (BACE1 [2]) is listed as “noncompetitive inhibition”. The Ki (BACE1 [2]) was 39.4 µM, the inhibition at 10 µM (Chymotrypsin) was 3.19 ± 0.28% and the inhibition at 100 µM (Chymotrypsin) was 4.11 ± 0.34%. The “Inhibitory activity against cholinesterases” value (cholinesterases) was “low inhibitory activity”, the “Inhibition mode on AChE” value (AChE [3]) was “noncompetitive inhibition” and the Ki (AChE [3]) was 21.4 µM. For the same compound, the IC50 (AChE [4]) was 22.8 ± 2.78 µM, the “Effect of chronic administration in APPswe/PS1dE9 Tg mice” value (APPswe/PS1dE9 Tg mice) was “attenuated oxidative damage, increased anti-oxidative defense, and alleviated cognitive impairment” and the inhibition at 10 µM (Elastase) was 6.91 ± 0.83%. It also gave an inhibition at 100 µM (Elastase) of 6 ± 1.33%, an inhibition at 10 µM [6] of 8.53 ± 1.05% and an inhibition at 100 µM [6] of 9.19 ± 1.2%. For the same compound, the “Neuroprotective effect in APP/PS1 Tg mice” value (APP/PS1 Tg mice) was “recovered microglial activation, APP expression, Aβ deposition, and behavioral dysfunction”, the “Inhibition mode on BChE” value (BChE [8]; Dixon and Lineweaver–Burk plots) was “noncompetitive inhibition” and the Ki (BChE [8]; Dixon plot) was 93.6 µM. The IC50 (BACE1 [7]) was 17 ± 1.25 µM, the “Inhibitory activities (%) Trypsin” value (Trypsin; sample 10 μM) was 2.27 ± 0.30% and the “Inhibitory activities (%) Trypsin” value (Trypsin; sample 100 μM) was 1.41 ± 0.22%.
In the case of `O=C1CC(c2ccc(O)cc2)Oc2cc(O)cc(O)c21` (stereo not drawn) [Naringenin], the IC50 (BChE [1]) is listed as greater than 100 µM, the “Presence in cerebral cortexes of rats” value (rat brain; intravenous naringenin 20 mg/kg ref 28) is listed as “identified” and the “Inhibition mode on BACE1” value (BACE1 [2]) is listed as “noncompetitive inhibition”. It also gave a Ki (BACE1 [2]) of 47.1 µM, an inhibition at 10 µM (Chymotrypsin) of 8.77 ± 0.74% and an inhibition at 100 µM (Chymotrypsin) of 6.88 ± 0.89%. For the same compound, the “Inhibition mode on AChE” value (AChE [3]) was “noncompetitive inhibition”, the Ki (AChE [3]) was 45.4 µM and the IC50 (AChE [4]) was 42.7 ± 4.3 µM. The “Effect on scopolamine-induced amnesia” value (mice) was “significantly mitigated scopolamine-induced amnesia”, the BBB crossing [5] was “cross the BBB” and the inhibition at 10 µM (Elastase) was 9.74 ± 0.41%. It also gave an inhibition at 100 µM (Elastase) of 10.5 ± 1.17%, an inhibition at 10 µM [6] of 5.15 ± 0.98% and an inhibition at 100 µM [6] of 6.95 ± 1.52%. The IC50 (BACE1 [7]) was 30.3 ± 2.06 µM, the “Inhibitory activities (%) Trypsin” value (Trypsin; sample 10 μM) was 7.80 ± 1.25% and the “Inhibitory activities (%) Trypsin” value (Trypsin; sample 100 μM) was 5.84 ± 0.75%.
For `COc1cc(O[C@@H]2O[C@H](CO[C@@H]3O[C@H](CO)[C@@H](O)[C@H](O)[C@H]3O)[C@@H](O)[C@H](O)[C@H]2O)c2c(O)c3c(=O)cc(C)oc3cc2c1` [Rubrofusarin-6-O-β-D-gentiobioside], the IC50 (AChE [9]) is given as 15.9 ± 0.32 µM.
